In test [1] the target is T1, C5aR1 wild type (Homo sapiens, UniProt P21730).
T1 construct: expressed in transfected cells; host or cells: HEK293
T1 sequence (P21730 1-350): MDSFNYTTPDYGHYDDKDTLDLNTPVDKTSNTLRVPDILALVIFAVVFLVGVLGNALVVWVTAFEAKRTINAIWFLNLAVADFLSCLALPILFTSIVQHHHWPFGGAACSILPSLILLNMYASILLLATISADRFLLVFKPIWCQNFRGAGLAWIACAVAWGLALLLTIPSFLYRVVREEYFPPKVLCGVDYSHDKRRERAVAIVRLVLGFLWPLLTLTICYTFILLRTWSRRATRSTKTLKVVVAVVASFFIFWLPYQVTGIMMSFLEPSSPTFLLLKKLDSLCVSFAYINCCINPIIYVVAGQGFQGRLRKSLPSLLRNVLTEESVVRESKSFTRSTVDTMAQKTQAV
As to the kind of experiment: BRET-based Gαi1–γ2 dissociation assay (G protein signaling). The format is cell-based. As to conditions: HEK293, Gi protein dissociation assay (Fig. S10a), ligand 10 min, mean±SEM, n=3. The procedure: The activation of C5aR1 induced by ligands was measured through BRET-based Gαi1 dissociation from Gβ1γ2 as previously described.[60] HEK293 cells were plated in 6-well plates containing 600,000–800,000 cells per well and cultured 24 h at 37 °C in cell incubator. […] After transfection for 24 h, cells were harvested and dispensed into 96-well white plates and allowed to culture overnight. […] Next, prepared ligands were added into cells for 10 min and the second BRET signal was measured. […] Data were analyzed using a simulation dose-response in GraphPad Prism 7.

The target in test [2] is T2, C5aR1-WT (Homo sapiens, UniProt P21730).
T2 construct: expressed in transfected cells; host or cells: HEK293
T2 sequence (P21730 1-350): T1 sequence (P21730 1-350)
As to the kind of experiment: BRET assay measuring β-arrestin 2 recruitment. The format is cell-based. As to conditions: C5aR1 wild type, HEK293, BRET, mean±SEM, n=3, Table S5, read-out: EC50, β-arrestin2 recruitment. The procedure: Briefly, HEK293 cells were transiently transfected with C5aR1-Nluc and mVenus-β-arrestin 2 or C5aR2-mVenus and Nluc-β-arrestin 2 constructs using PEI transfection reagent (YEASEN, 40816ES02) according to the manufacturer’s instruction. At 24 h post transfection, the cells were gently detached and seeded (100,000/well) onto 96-well white plates in DMEM containing 5% FBS. On the next day, cells were washed once with Phosphate Buffered Saline (PBS) and incubated in HBSS containing 20 mM HEPES, pH 7.4, with coelenterazine h (5 μM, YEASEN, 40906ES02) for 1 h (37 °C, 5% CO2). […] We carried out the nonlinear regression (curve fit) dose-response function in GraphPad Prism 7 to yield the values of Emax and EC50.

The subject of test [3] is C5aR1. As to the kind of experiment: Bias calculation, Gi protein signaling vs β-arrestin 2 recruitment. The format is cell-based, human. As to conditions: from curve fit parameters, endogenous agonist C5a as reference; β value > 0 Gi protein-biased, < 0 β-arrestin-biased. The procedure: The measurement of cAMP inhibition and β-arrestin recruitment in our study was performed as described. Besides, the parameters used below were based on the curve fits of the combined datasets described above.

The subject of test [4] is C5aR1. Nature of the test: Biased antagonism in competition with C5a (Gi-protein signaling vs β-arrestin 2 recruitment). The format is cell-based, human. As to conditions: HEK293. The procedure: To measure cAMP inhibition effects on the forskolin-induced cAMP accumulation of C5aR1, the GloSensor cAMP assay (Promega) was performed as described in the previous study.[59] Briefly, Flag-tagged wild-type human C5aR1 was co-expressed with GloSensor plasmid in HEK293 cells in 6-well culture plates. After at least 24 h, transfected cells were harvested and suspended in assay buffer Hank’s Balanced Salt Solution (HBSS) containing 10 mM HEPES, pH 7.4, with an additional 3% v/v dilution of the D-Luciferin-Potassium Salt (YEASEN, 40902ES01). […] Finally, the luminescence signals were counted on the Synergy H1 microplate reader (BioTek). […]
The C5a-mediated β-arrestin 2 recruitment to C5aR1 and C5aR2, respectively, was measured using BRET-based assay as previously described.[36],[61],[62] […] The baseline BRET light emissions (460–485 nm and 520–545 nm) were monitored by the Synergy H1 microplate reader (BioTek). After the incubation of different diluted concentrations of agonist with or without antagonist for 10 min, the second BRET light emissions were measured and the ligand-induced BRET ratio was calculated by subtracting the acceptor (mVenus, 520–545 nm) over donor (Nluc, 460–485 nm) emission ratio of the vehicle-treated wells from that of the ligand-treated wells. […]

Square brackets hold non-standard residues; d marks the D form. Peptide text beside a SMILES is read from it. Nva = CCC[C@H](N)C(=O)O

As for `CC(=O)N[C@@H](Cc1ccccc1)C(=O)N[C@@H](CCCCN)C(=O)N1CCC[C@H]1C(=O)N[C@@H](CC(C)C)C(=O)N[C@@H](C)C(=O)N[C@@H](Cc1ccccc1)C(=O)N[C@H](C)C(=O)N[C@@H](CCCNC(=N)N)C(=O)O` [BM213P6-F] (Ac-FKPLAF[dA]R-OH), the EC50 in test [1] worked out at 0.455 ± 0.0349 µM; in test [2], 155 ± 59 µM. Turning to `CC(=O)N[C@@H](Cc1ccccc1)C(=O)N[C@@H](CCCCN)C(=O)N1CCC[C@H]1C(=O)N[C@@H](CC(C)C)C(=O)N[C@@H](C)C(=O)N[C@@H](CC(C)C)C(=O)N[C@H](C)C(=O)N[C@@H](CCCNC(=N)N)C(=O)O` [BM213P6-L] (Ac-FKPLAL[dA]R-OH; C-terminus assumed), the “Signaling bias (bias factor, in words)” value in test [3] is on record as “increased β-arrestin-biased features compared to BM213”. Same read-out and setting: to `CCC[C@H](NC(=O)[C@H](C)NC(=O)[C@H](CC(C)C)NC(=O)[C@@H]1CCCN1C(=O)[C@H](CCCCN)NC(=O)[C@H](Cc1ccccc1)NC(C)=O)C(=O)N[C@H](C)C(=O)N[C@@H](CCCNC(=N)N)C(=O)O` [BM213P6-Nva] (Ac-FKPLA[Nva][dA]R-OH) belongs “increased β-arrestin-biased features compared to BM213”. For the molecule `CC(=O)N[C@@H](Cc1ccccc1)C(=O)N[C@@H](CCCCN)C(=O)N1CCC[C@H]1C(=O)N[C@@H](CC(C)C)C(=O)N[C@@H](C)C(=O)N[C@H](C(=O)N[C@H](C)C(=O)N[C@@H](CCCNC(=N)N)C(=O)O)C(C)C` [BM213P6-V] (Ac-FKPLAV[dA]R-OH), the EC50 was 0.0355 ± 0.00423 µM in test [1] and 2.59 ± 0.11 µM in test [2]. For `Cc1ccc(NC(=O)[C@H]2CCCN(C(=O)c3c(C)cccc3F)[C@H]2c2ccc(NC3CCCC3)cc2)cc1C(F)(F)F` [avacopan], the “Biased antagonism (in words)” value in test [4] is “biased inhibition toward β-arrestin recruitment over G protein coupling”. With PMX53, the “Biased antagonism (in words)” value in test [4] is given as “the opposite”.

The values above are taken from paper PMC9937529, “Mechanism of activation and biased signaling in complement receptor C5aR1” (Cell Research, 2023).
